In PubChem BioAssay (NCI) one finds TGI and GI50 data, which are given here for 13 compounds.

What all share (assay): inhibition of tumour cell growth, NCI panel, 48 h
Assay [1] relates to NCI-H226 lung.
In assay [2] the test system is OVCAR-5 ovarian.
For assay [3], the system named is SK-MEL-5 melanoma.
The subject of assay [4] is M14 melanoma.
In assay [5] the test system is U251 CNS.
The subject of assay [6] is HL-60(TB) leukemia.
Assay [7] relates to OVCAR-3 ovarian.
Assay [8] concerns UO-31 renal.
The test system of assay [9] is A549 NSCLC.
For assay [10], the system named is SK-OV-3 ovarian.

The structures appear in SMILES notation. “And” between values parts separate entries of the source, which are not always exact repeats. Equal values may be shown once.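 Protocol summary: plate cells (96-well), add compound at 5 concentrations, incubate 48 h, interpolate endpoints linearly. At the GI50, growth is halved. TGI is the concentration that stops growth completely.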

In the case of `O=C(CCC(=O)Nc1ccc(Cl)c(Cl)c1)CC(=O)c1ccc2ccccc2c1`, the TGI in assay [1], in assay [2], in assay [3], in [4], in [5] and in [6] was above 100 µM in each case. The TGI in [7], in [8] and in assay [9] was above 100 µM each time.
With `CS(=O)(=O)CCNCc1ccc(-c2ccc3ncnc(Nc4ccc(OCc5cccc(F)c5)c(Cl)c4)c3c2)o1`, the GI50 is > 10 µM and > 100 µM and 25 µM in assay [1]; 3.21 µM and 4.34 µM in [3]; 8.6 µM and 2.56 µM and 4.22 µM in assay [4]; > 10 µM and 6.7 µM and 9.36 µM in [5]; 68.1 nM and 40.9 nM and 44.1 nM in assay [10]; > 10 µM and 3.54 µM and 8.01 µM in assay [7]. Also, the GI50 is 2390 nM and 807 nM and 1080 nM in assay [8]; 7.66 µM and 5.68 µM and 5.76 µM in assay [9]. In addition, the TGI in assay [1] is > 10 µM and > 100 µM and 86.7 µM; in [3], 22.9 µM and 15.4 µM; in assay [4] it was > 10 µM and > 20.2 µM and 12.2 µM; in assay [5], > 10 µM and > 100 µM and 24.9 µM; in assay [6], > 10 µM and > 100 µM and 23.6 µM; in [10], > 10 µM and > 100 µM and 31.7 µM. For the same compound, the TGI in assay [7] was > 10 µM and 52.6 µM and 24.2 µM; in assay [8], > 10 µM and > 33 µM and 26.2 µM; in assay [9], > 10 µM and > 100 µM and 23.5 µM.
`O=[N+]([O-])c1cc(-c2nc(=S)[nH][nH]2)ccc1O`: the TGI in [2], in assay [3], in [4], in [5], in assay [6] and in assay [10] was above 100 µM throughout. For the same compound, the TGI in assay [8] and in assay [9] was above 100 µM in each case.
Turning to `[O-]/N=[N+](/[O-])C1CCCCC1=[N+]1CCOCC1` (configuration not stated), the TGI in assay [1], in assay [2], in assay [4], in assay [5], in assay [6] and in [10] was above 100 µM each time. Moreover, the TGI in assay [7], in [8] and in [9] was above 100 µM each time.
On to `OCC1OC2c3ccccc3COC2C1OCc1ccccc1` (configuration not stated), for which the TGI in assay [1], in [2], in [3], in assay [4], in [5] and in assay [10] was above 100 µM each time. In addition, the TGI in [7], in [8] and in assay [9] was above 100 µM throughout.
Take `CC1(C)NC(=O)N(CCCCCCN2C(=O)NC(C)(C)C2=O)C1=O`: the TGI in [1], in [2], in [4], in assay [5], in assay [10] and in assay [8] was above 100 µM throughout. The compound further returned a TGI in [9] above 100 µM.
Take `COC(=O)c1cc(NC(=O)c2cc(NC(=O)c3cc([N+](=O)[O-])n(C)c3)cn2C)cn1C`: the GI50 in assay [1] was 39.9 µM; in [2], 30.9 µM; in assay [3], 5.03 µM; in [4], 15.2 µM; in assay [5], 32.7 µM; in assay [10] it was 45300 nM. Moreover, the GI50 is above 100 µM in assay [7], above 100000 nM in assay [8] and 64.1 µM in [9]. For the same compound, the TGI was above 100 µM in assay [1]; above 100 µM in assay [2]; 59 µM in assay [3]; above 100 µM in assay [4]; above 100 µM in assay [5]; above 100 µM in [10]. The TGI in [7], in assay [8] and in assay [9] was above 100 µM throughout.
With `C/C(CCn1[nH]c(=O)ccc1=O)=N\NC(=O)C(N)=O`, the TGI in assay [1], in assay [2], in assay [3], in [4], in [5] and in assay [6] was above 100 µM each time. Moreover, the TGI in [7], in [8] and in [9] was above 100 µM in each case.
As for `COc1cc2c3c(n(CCCN(CCCN(CCCn4c5c(c6ccccc6c4=O)C(=O)c4ccccc4-5)C(=O)OC(C)(C)C)C(=O)OC(C)(C)C)c(=O)c2cc1OC)-c1cc2c(cc1C3=O)OCO2`, the GI50 in [3] is above 100 µM; in assay [4] it was above 100 µM; in assay [5], above 100 µM; in assay [6] it was above 100 µM; in assay [10], above 100000 nM; in [8] it was above 100000 nM. For the same compound, the GI50 in assay [9] is above 100 µM. In addition, the TGI in assay [3], in [4], in assay [5], in assay [6], in assay [10] and in assay [8] was above 100 µM each time. This compound gave a TGI in assay [9] above 100 µM.
On to `Cc1cc(Cl)nc2ccc(Cc3ccc4nc(Cl)cc(C)c4c3)cc12`, for which the TGI in [1] was above 100 µM; in assay [2], above 100 µM; in [3], above 100 µM; in [4], above 100 µM; in assay [5], 79.3 µM; in [10], 47.1 µM. The TGI in [7], in assay [8] and in assay [9] was above 100 µM throughout.
Take `N#CCCN(CCC#N)c1ccc(/C=C(/NC(=O)c2cc([N+](=O)[O-])ccc2Cl)C(=O)NN)cc1`: the TGI in assay [1], in assay [2], in [3], in assay [4], in assay [5] and in assay [10] was above 100 µM in each case. For the same compound, the TGI in assay [7], in [8] and in [9] was above 100 µM throughout.
As for `O=C(NC(=Nc1ccccc1)SCSC(=Nc1ccccc1)NC(=O)c1ccco1)c1ccco1`, the TGI in assay [1], in assay [2], in assay [3], in [4], in assay [5] and in [7] was above 100 µM each time. In addition, the TGI in [8] and in assay [9] was above 100 µM each time.
On to `c1ccc2c(c1)SC(=C1Sc3ccccc3S1)S2`, for which the TGI in [4], in [5], in [10], in [7], in assay [8] and in assay [9] was above 100 µM each time.
